Measured values reported in patent publication US20200289521A1, “USE OF VITAMIN K IN COMBINATION WITH ANTICOAGULANTS” (KAYDENCE PHARMA AS, priority 2019, published 2020).

Columns and labels:
VSMCs = assay: Oxidative stress in VSMCs (DCFDA to DCF fluorescence); type: cell-based; conditions: 10 μM, fluorescence measured for 6 hours
Description: It is known that the level of reactive oxygen species in cells can be measured by measuring the conversion of 2′,7′-dichlorofluorescein diacetate (DCFDA) to the fluorescent dye 2′,7′-dichlorofluorescein (DCF). The fluorescence generated by cells subjected to DCFDA is directly proportional to the amount of oxidized DCFDA to DCF.
To perform the study, VSMCs (10,000 cells/well) were plated in a 96-well plate and left to adhere overnight. Next, cells were incubated for 1 hour with 20 μM DCFDA. The medium was then changed to medium supplemented with 10 μM vitamin K2 (MK-7). To visualize intracellular oxidative stress, fluorescence was measured for 6 hours and fluorescence intensity was normalized for cell count.

[1] = test system: human vascular smooth muscle cells (hVSMCs); assay: ATP measurement in hVSMCs with warfarin and/or vitamin K2 (luminescence); type: cell-based; conditions: 24 hours
Description: This study was performed in order to determine the effect of vitamin K2 (MK-7) on warfarin-induced oxidative stress in muscles. To perform this study, human vascular smooth muscle cells (hVSMCs; 5,000 cells/well) were plated in 96-well dark plates and left to adhere overnight. Next, cells were incubated for 24 hours with either vehicle only (as blank control), warfarin (10 or 50 μM), vitamin K2 (MK-7) (10 μM), or a combination of warfarin (50 μM) and vitamin K2 (MK-7) (10 μM). Hoechst was added to correct for cell number (1 μg/mL). Next, ATP was measured using mammalian lysis buffer for 5 minutes after which 50 μL ATP substrate solution was added to the wells and incubated for 10 minutes in a dark environment. Finally, medium was transferred to a white plate to measure luminescence.

## CC(C)=CCC/C(C)=C/CC/C(C)=C/CC/C(C)=C/CC/C(C)=C/CC/C(C)=C/CC/C(C)=C/CC1=C(C)C(=O)c2ccccc2C1=O [vitamin K2 (MK-7)]
VSMCs
  oxidative stress (DCF fluorescence normalized for cell count): clearly reduced the oxidative stress
[1]; warfarin 10 or 50 μM, vitamin K2 (MK-7) 10 μM
  cell ATP / ATP generation: increased cell ATP
[1]; warfarin 50 μM + vitamin K2 (MK-7) 10 μM
  oxidative stress induced by warfarin: counteracted the oxidative stress induced by warfarin
